How the values were obtained:
MCF7 = experiment: Cytotoxicity against Homo sapiens (human) MCF7 cells after 96 hr by MTT assay; type: functional, cell-based; settings: MCF7, 96 h
PC-3 = experiment: Cytotoxicity against Homo sapiens (human) PC3 cells after 96 hr by MTT assay; type: functional, cell-based; settings: PC-3, 96 h
[1] = biological target: Methionine synthase (Homo sapiens) (UniProt Q99707); experiment: Inhibition of methionine synthase (unknown origin) by cell free assay; set-up: concentration or dose not given beside the values; settings: concentration not given here
Methionine synthase (Homo sapiens), sequence (Q99707 whole entry): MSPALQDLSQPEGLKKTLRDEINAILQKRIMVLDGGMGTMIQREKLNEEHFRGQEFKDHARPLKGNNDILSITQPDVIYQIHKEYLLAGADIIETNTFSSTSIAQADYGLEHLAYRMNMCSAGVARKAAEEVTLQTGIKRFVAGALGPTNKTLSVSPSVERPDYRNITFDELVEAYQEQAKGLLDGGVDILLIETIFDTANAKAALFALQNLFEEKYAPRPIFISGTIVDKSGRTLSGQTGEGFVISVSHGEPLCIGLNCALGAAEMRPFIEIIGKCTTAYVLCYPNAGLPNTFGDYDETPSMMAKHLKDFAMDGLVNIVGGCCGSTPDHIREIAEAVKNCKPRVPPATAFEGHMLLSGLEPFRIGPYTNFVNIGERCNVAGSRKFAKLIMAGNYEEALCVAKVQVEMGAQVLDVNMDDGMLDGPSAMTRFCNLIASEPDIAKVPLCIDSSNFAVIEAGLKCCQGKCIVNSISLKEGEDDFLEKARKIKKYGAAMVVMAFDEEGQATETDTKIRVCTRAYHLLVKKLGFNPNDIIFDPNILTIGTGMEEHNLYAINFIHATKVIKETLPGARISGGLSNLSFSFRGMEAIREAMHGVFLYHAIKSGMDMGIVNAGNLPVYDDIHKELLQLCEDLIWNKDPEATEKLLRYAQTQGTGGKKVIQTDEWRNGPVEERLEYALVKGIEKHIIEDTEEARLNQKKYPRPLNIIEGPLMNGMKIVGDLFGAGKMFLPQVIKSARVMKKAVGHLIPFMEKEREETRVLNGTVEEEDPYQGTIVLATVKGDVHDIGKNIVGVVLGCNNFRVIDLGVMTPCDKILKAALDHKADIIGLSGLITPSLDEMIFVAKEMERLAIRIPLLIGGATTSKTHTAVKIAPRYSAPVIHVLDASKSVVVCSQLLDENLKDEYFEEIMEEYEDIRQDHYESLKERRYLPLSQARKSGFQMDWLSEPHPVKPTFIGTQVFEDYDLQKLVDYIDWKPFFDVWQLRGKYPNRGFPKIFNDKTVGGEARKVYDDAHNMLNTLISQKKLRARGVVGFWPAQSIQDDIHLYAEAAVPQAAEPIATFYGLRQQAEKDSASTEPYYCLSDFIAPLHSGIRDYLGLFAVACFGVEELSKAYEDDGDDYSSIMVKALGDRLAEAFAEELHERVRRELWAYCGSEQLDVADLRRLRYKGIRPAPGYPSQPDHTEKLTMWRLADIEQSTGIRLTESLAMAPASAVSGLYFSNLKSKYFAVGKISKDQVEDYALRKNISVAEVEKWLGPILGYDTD

| SMILES | IC50 (MCF7) | IC50 (PC-3) | inhibition [1] |
| --- | --- | --- | --- |
| CNC(=O)c1ccc(NCc2cnc3cc([N+](=O)[O-])ccc3n2)cc1 | 47 µM | 49 µM | – |
| Cc1cccc(NCc2cnc3cc([N+](=O)[O-])ccc3n2)c1 | 79 µM | 77 µM | 45% |
| Cc1ccc(NCc2cnc3cc([N+](=O)[O-])ccc3n2)cc1 | 68 µM | 57 µM | 65% |
| O=[N+]([O-])c1ccc2nc(CNc3ccc(Cl)cc3)cnc2c1 | 75 µM | 70 µM | 45% |
| O=[N+]([O-])c1ccc2nc(CCl)cnc2c1 | 66 µM | 70 µM | 55% |
| CCNC(=O)c1ccc(NCc2cnc3cc([N+](=O)[O-])ccc3n2)cc1 | 49 µM | 66 µM | – |
| O=C(O)c1ccc(NCc2cnc3cc([N+](=O)[O-])ccc3n2)cc1 | 53 µM | 45 µM | 89% |
| O=[N+]([O-])c1ccc2nc(CNc3ccccc3)cnc2c1 | 61 µM | 56 µM | 65.9% |
